Test results from ChEMBL document CHEMBL1128052, “Further structure-activity-relationship studies on A/C/D-ring analogs of complement inhibitor K-76” (Bioorg Med Chem Lett, 1995).
pEC50, pIC50: −log10 of the molar value.

Legend:
Homo sapiens = species: Homo sapiens; test: Inhibitory concentration required to inhibit human complement induced hemolysis by 50%; format: functional, organism-based
[1] = Intrinsic Lytic Activity required to cause 50% hemolysis in the absence of complement; format: functional, Ovis aries
[2] = Intrinsic Lytic Activity required to cause 50% hemolysis in the absence of complement; Not bioassayed; format: functional, Ovis aries

Row | Compound | pIC50 (Homo sapiens) | pEC50 [1] | EC50 [2]
1 | CC1=CCC([C@]2(C)Cc3c(Oc4ccccc4)cc(C(=O)O)cc3O2)CC1 (stereo partly specified) | < 3.08 | > 3.70 | –
2 | CC1=CCC([C@]2(C)Cc3c(O)cc(C=O)cc3O2)CC1 (stereo partly specified) | 3.29 | > 3.55 | –
3 | COc1ccc(C(=O)O)c2c1C[C@@](C)(C1CC=C(C)CC1)O2 (stereo partly specified) | 3.42 | – | Not bioassayed
4 | CC1=CCC([C@]2(C)Cc3c(O)cc(C(=O)O)cc3O2)CC1 (stereo partly specified) | 3.14 | < 2.98 | –
5 | COc1ccc(C(=O)O)c2c1C[C@](C)(C1CC[C@](C)(O)[C@H](O)C1)O2 (stereo partly specified) | 2.80 | – | Not bioassayed
6 | C[C@@H]1CCC2C(C)(C)[C@H](O)[C@H](O)C[C@]2(C)[C@@]12Cc1c(O)cc(C(=O)O)c(C=O)c1O2 (stereo partly specified) | 3.17 | < 3.17 | –
7 | COc1cc(C=O)cc2c1C[C@@](C)(C1CC=C(C)CC1)O2 (stereo partly specified) | < 2.98 | < 2.98 | –
8 | CC1=CCC([C@@]2(C)Cc3c(O)ccc(C(=O)O)c3O2)CC1 (stereo partly specified) | 2.68 | – | Not bioassayed
9 | COc1ccc(C(=O)O)c2c1C[C@](C)(C1CC=C(C)CC1)O2 (stereo partly specified) | 3.17 | – | Not bioassayed
10 | CC1=CCC([C@]2(C)Cc3c(Oc4ccccc4)cc(C=O)cc3O2)CC1 (stereo partly specified) | < 3.06 | < 3.06 | –
11 | COc1cc(C(=O)O)cc2c1C[C@@](C)(C1CC=C(C)CC1)O2 (stereo partly specified) | < 3.00 | 3.18 | –
12 | COc1cc(C(=O)O)cc2c1CC(C)(C1CC[C@](C)(O)[C@H](O)C1)O2 (stereo partly specified) | < 3.05 | < 3.05 | –
13 | CC1=CCC([C@]2(C)Cc3c(O)ccc(C(=O)O)c3O2)CC1 (stereo partly specified) | 2.62 | – | Not bioassayed
